Like-named read-outs stand apart in the source and are kept apart here. Starred links: 1 amine or outer side, 2 acyl side, 3 side chain; linkers in the order of their positions; H or OH if unused. Non-standard residues stand in square brackets, D forms with d. Residues, ends and D or L forms follow the SMILES beside them. Groups on a side chain read outwards from the residue. *: point of attachment. C20 diacid = O=C(O)CCCCCCCCCCCCCCCCCCC(=O)*; C18 diacid = O=C(O)CCCCCCCCCCCCCCCCC(=O)*; γGlu = O=C(O)[C@H](CCC(=O)[*:2])N[*:1]; αMeF = C[C@](N)(Cc1ccccc1)C(=O)O; AEEA = NCCOCCOCC(=O)O; Aib = CC(C)(N)C(=O)O

Experiment [1] has as its target human GLP-1 receptor (hGLP-1R) (Homo sapiens, UniProt P43220). Description: cAMP production (HTRF) in CHO cells expressing hGLP-1R. Type of experiment: cell-based. Also on record: expressed in transfected cells. Particulars: for EC50: Table 6, peptides modified at position 17, cAMP in CHO hGLP-1R cells, geometric mean; for % Relative Potency Ratio: Table 6, % GLP-1R activity relative to GLP-1 / % GlucR activity relative to glucagon. A digest of the protocol: (§1)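 Cells were resuspended in assay buffer at batch-optimized density, typically 1×10^5 cells/mL for hGLP-1R and 2×10^5 cells/mL for hGCGR. After 30 min incubation at room temperature with compound, cAMP was measured by two-step HTRF. EC50 values came from 4-parameter logistic fits of % Delta F.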
A general note: Cyclic AMP is a second messenger, typically raised through Gs and lowered through Gi signalling.

The target of experiment [2] is human glucagon receptor (hGCGR) (Homo sapiens, UniProt P47871). The experiment can be described thus: cAMP production (HTRF) in CHO cells expressing hGCGR. The settings on record: Table 6, peptides modified at position 17, cAMP in CHO hGCGR cells, geometric mean. Also noted: expressed in transfected cells. It counts as cell-based. A digest of the protocol:
as §1

human glucagon receptor (hGCGR), sequence (P47871 26-477): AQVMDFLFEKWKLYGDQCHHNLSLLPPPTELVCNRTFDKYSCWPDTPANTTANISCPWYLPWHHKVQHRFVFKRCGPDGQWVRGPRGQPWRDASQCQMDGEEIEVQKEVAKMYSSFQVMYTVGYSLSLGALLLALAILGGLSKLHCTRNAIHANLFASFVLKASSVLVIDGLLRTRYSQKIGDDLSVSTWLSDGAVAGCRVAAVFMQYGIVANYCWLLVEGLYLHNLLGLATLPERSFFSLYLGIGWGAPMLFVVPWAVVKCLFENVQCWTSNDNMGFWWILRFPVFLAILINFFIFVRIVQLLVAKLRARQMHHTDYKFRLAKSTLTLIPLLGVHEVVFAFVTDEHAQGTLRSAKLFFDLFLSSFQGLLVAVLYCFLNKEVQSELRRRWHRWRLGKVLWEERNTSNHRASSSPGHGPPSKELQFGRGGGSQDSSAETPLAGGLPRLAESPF
human GLP-1 receptor (hGLP-1R), sequence (P43220 24-463): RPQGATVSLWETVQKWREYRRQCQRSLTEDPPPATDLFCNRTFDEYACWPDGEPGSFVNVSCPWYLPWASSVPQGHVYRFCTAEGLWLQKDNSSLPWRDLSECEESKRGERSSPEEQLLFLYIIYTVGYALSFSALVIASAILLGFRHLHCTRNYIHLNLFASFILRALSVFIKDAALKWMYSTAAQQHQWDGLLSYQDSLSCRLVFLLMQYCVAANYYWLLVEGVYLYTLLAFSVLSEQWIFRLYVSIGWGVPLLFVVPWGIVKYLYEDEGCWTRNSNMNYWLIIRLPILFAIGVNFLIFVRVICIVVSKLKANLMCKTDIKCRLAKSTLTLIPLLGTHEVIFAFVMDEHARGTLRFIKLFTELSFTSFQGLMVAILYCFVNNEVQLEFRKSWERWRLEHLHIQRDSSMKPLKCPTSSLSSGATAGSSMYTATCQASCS

Turning to `CC(C)C[C@H](NC(=O)[C@H](Cc1c[nH]c2ccccc12)NC(=O)[C@H](CCCNC(=N)N)NC(=O)[C@@H](NC(=O)[C@H](Cc1ccccc1)NC(=O)[C@H](CC(=O)O)NC(=O)[C@H](CCC(N)=O)NC(=O)[C@H](C)NC(=O)[C@H](CCCNC(=N)N)NC(=O)[C@H](CCCCNC(=O)COCCOCCNC(=O)COCCOCCNC(=O)CC[C@H](NC(=O)CCCCCCCCCCCCCCCCC(=O)O)C(=O)O)NC(=O)[C@H](CCCCN)NC(=O)[C@H](CC(=O)O)NC(=O)[C@H](CC(C)C)NC(=O)[C@](C)(Cc1ccccc1)NC(=O)[C@H](CCCCN)NC(=O)[C@H](CO)NC(=O)[C@@H](NC(=O)[C@H](CC(=O)O)NC(=O)[C@H](CO)NC(=O)[C@@H](NC(=O)[C@H](Cc1ccccc1)NC(=O)[C@@H](NC(=O)CNC(=O)[C@H](CCC(N)=O)NC(=O)C(C)(C)NC(=O)[C@@H](N)Cc1c[nH]cn1)[C@@H](C)O)[C@@H](C)O)C(C)C)C(C)C)C(=O)N[C@@H](CC(C)C)C(=O)N[C@@H](CCC(=O)O)C(=O)NC(C)(C)C(=O)NCC(N)=O` [Peptide 442] (H-H[Aib]QGTFTSDVSK[αMeF]LDKK([AEEA-AEEA-γGlu-C18 diacid])RAQDFVRWLLE[Aib]G-NH2; N-terminus assumed), the values for the EC50 in experiment [1] (read-out: hGLP-1R EC50) and in experiment [2] (read-out: hGluc-R EC50) were 19.1 pM and 35.8 pM, respectively. In experiment [1], the “% Relative Potency Ratio” value is 3.7.

For the molecule `CC(C)C[C@H](NC(=O)[C@H](Cc1c[nH]c2ccccc12)NC(=O)[C@H](CCCNC(=N)N)NC(=O)[C@@H](NC(=O)[C@H](Cc1ccccc1)NC(=O)[C@H](CC(=O)O)NC(=O)[C@H](CCCNC(=N)N)NC(=O)[C@H](C)NC(=O)[C@H](CCCNC(=N)N)NC(=O)[C@H](CCCCNC(=O)COCCOCCNC(=O)COCCOCCNC(=O)CC[C@H](NC(=O)CCCCCCCCCCCCCCCCC(=O)O)C(=O)O)NC(=O)[C@H](CCCCN)NC(=O)[C@H](CC(=O)O)NC(=O)[C@H](CC(C)C)NC(=O)[C@](C)(Cc1ccccc1)NC(=O)[C@H](CCCCN)NC(=O)[C@H](CO)NC(=O)[C@@H](NC(=O)[C@H](CC(=O)O)NC(=O)[C@H](CO)NC(=O)[C@@H](NC(=O)[C@H](Cc1ccccc1)NC(=O)[C@@H](NC(=O)CNC(=O)[C@H](CCC(N)=O)NC(=O)C(C)(C)NC(=O)[C@@H](N)Cc1c[nH]cn1)[C@@H](C)O)[C@@H](C)O)C(C)C)C(C)C)C(=O)N[C@@H](CC(C)C)C(=O)NC(C)(C)C(=O)N[C@@H](CCC(=O)O)C(N)=O` [Peptide 443] (H-H[Aib]QGTFTSDVSK[αMeF]LDKK([AEEA-AEEA-γGlu-C18 diacid])RARDFVRWLL[Aib]E-NH2; N-terminus assumed), the EC50 came out at 20.6 pM in experiment [1] (read-out: hGLP-1R EC50) and 22.4 pM in experiment [2] (read-out: hGluc-R EC50). Also, in experiment [1], the “% Relative Potency Ratio” value was determined as 2.2.

Take `CC(C)C[C@H](NC(=O)[C@H](Cc1c[nH]c2ccccc12)NC(=O)[C@H](CCC(N)=O)NC(=O)[C@@H](NC(=O)[C@H](Cc1ccccc1)NC(=O)[C@H](CC(=O)O)NC(=O)[C@H](CCCNC(=N)N)NC(=O)[C@H](C)NC(=O)[C@H](CCCNC(=N)N)NC(=O)[C@H](CCCCNC(=O)COCCOCCNC(=O)COCCOCCNC(=O)CC[C@H](NC(=O)CCCCCCCCCCCCCCCCC(=O)O)C(=O)O)NC(=O)[C@@H](NC(=O)[C@H](CCC(=O)O)NC(=O)[C@H](CC(C)C)NC(=O)[C@](C)(Cc1ccccc1)NC(=O)[C@H](CCCCN)NC(=O)[C@H](CO)NC(=O)[C@@H](NC(=O)[C@H](CC(=O)O)NC(=O)[C@H](CO)NC(=O)[C@@H](NC(=O)[C@H](Cc1ccccc1)NC(=O)[C@@H](NC(=O)CNC(=O)[C@H](CCC(N)=O)NC(=O)C(C)(C)NC(=O)[C@@H](N)Cc1c[nH]cn1)[C@@H](C)O)[C@@H](C)O)C(C)C)[C@@H](C)O)C(C)C)C(=O)N[C@@H](CC(C)C)C(=O)N[C@@H](CCC(=O)O)C(=O)NC(C)(C)C(=O)NCC(=O)O` [Peptide 445] (H-H[Aib]QGTFTSDVSK[αMeF]LETK([AEEA-AEEA-γGlu-C18 diacid])RARDFVQWLLE[Aib]G-OH): the EC50 in experiment [1] (hGLP-1R EC50 (pM)) is 33 pM; in experiment [2] (hGluc-R EC50 (pM)), 684 pM.

Consider `CC(C)C[C@H](NC(=O)[C@H](Cc1c[nH]c2ccccc12)NC(=O)[C@H](CCCNC(=N)N)NC(=O)[C@@H](NC(=O)[C@H](Cc1ccccc1)NC(=O)[C@H](CC(=O)O)NC(=O)[C@H](CCC(N)=O)NC(=O)[C@H](C)NC(=O)[C@H](CCCNC(=N)N)NC(=O)[C@H](CCCCNC(=O)COCCOCCNC(=O)COCCOCCNC(=O)CC[C@H](NC(=O)CC[C@H](NC(=O)CCCCCCCCCCCCCCCCC(=O)O)C(=O)O)C(=O)O)NC(=O)[C@H](CCCNC(=N)N)NC(=O)[C@H](CC(=O)O)NC(=O)[C@H](CC(C)C)NC(=O)[C@](C)(Cc1ccccc1)NC(=O)[C@H](CCCCN)NC(=O)[C@H](CO)NC(=O)[C@@H](NC(=O)[C@H](CC(=O)O)NC(=O)[C@H](CO)NC(=O)[C@@H](NC(=O)[C@H](Cc1ccccc1)NC(=O)[C@@H](NC(=O)CNC(=O)[C@H](CCC(N)=O)NC(=O)C(C)(C)NC(=O)[C@@H](N)Cc1c[nH]cn1)[C@@H](C)O)[C@@H](C)O)C(C)C)C(C)C)C(=O)N[C@H](C(=O)NC(C)(C)C(=O)N[C@@H](CCC(=O)O)C(N)=O)C(C)C` [Peptide 446] (H-H[Aib]QGTFTSDVSK[αMeF]LDRK([AEEA-AEEA-γGlu-γGlu-C18 diacid])RAQDFVRWLV[Aib]E-NH2; N-terminus assumed), for which the EC50 in experiment [1] (read-out: hGLP-1R EC50) was 32.9 pM; in experiment [2] (read-out: hGluc-R EC50) it was 366 pM. The “% Relative Potency Ratio” value in experiment [1] is 22.0.

For `CC(C)C[C@H](NC(=O)[C@H](Cc1c[nH]c2ccccc12)NC(=O)[C@H](CCCNC(=N)N)NC(=O)[C@@H](NC(=O)[C@H](Cc1ccccc1)NC(=O)[C@H](CC(=O)O)NC(=O)[C@H](CCC(N)=O)NC(=O)[C@H](C)NC(=O)[C@H](CCCNC(=N)N)NC(=O)[C@H](CCCCNC(=O)COCCOCCNC(=O)COCCOCCNC(=O)CC[C@H](NC(=O)CC[C@H](NC(=O)CCCCCCCCCCCCCCCCCCC(=O)O)C(=O)O)C(=O)O)NC(=O)[C@H](CCCNC(=N)N)NC(=O)[C@H](CC(=O)O)NC(=O)[C@H](CC(C)C)NC(=O)[C@](C)(Cc1ccccc1)NC(=O)[C@H](CCCCN)NC(=O)[C@H](CO)NC(=O)[C@@H](NC(=O)[C@H](CC(=O)O)NC(=O)[C@H](CO)NC(=O)[C@@H](NC(=O)[C@H](Cc1ccccc1)NC(=O)[C@@H](NC(=O)CNC(=O)[C@H](CCC(N)=O)NC(=O)C(C)(C)NC(=O)[C@@H](N)Cc1c[nH]cn1)[C@@H](C)O)[C@@H](C)O)C(C)C)C(C)C)C(=O)N[C@H](C(=O)NC(C)(C)C(=O)N[C@@H](CCC(=O)O)C(N)=O)C(C)C` [Peptide 447] (H-H[Aib]QGTFTSDVSK[αMeF]LDRK([AEEA-AEEA-γGlu-γGlu-C20 diacid])RAQDFVRWLV[Aib]E-NH2; N-terminus assumed), the EC50 in experiment [1] (read-out: hGLP-1R EC50) amounted to 170 pM; in experiment [2] (read-out: hGluc-R EC50), 667 pM. Further, the “% Relative Potency Ratio” value in experiment [1] came out at 7.8.

Broadly, the EC50 is the concentration at which the effect is half-maximal.

Values taken from US20250353891A1 (MEDIMMUNE LIMITED, priority 2022, published 2025).
